The record followed here is PubChem BioAssay (NCI).

Test systems include CCRF-CEM leukemia; HOP-92 NSCLC; RPMI-8226 leukemia; SF-268 CNS; SF-539 CNS; SK-MEL-28 melanoma; SK-MEL-5 melanoma; SW-620 colon; UACC-257 melanoma; UO-31 renal.
Common to all, as to assay: NCI anticancer screen, dose series, 48 h

“And” between values parts separate entries of the source, which are not always exact repeats. Identical values can stand only once.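 Cells were grown in 96-well plates and exposed to each compound for 48 hours at five concentrations; endpoints were interpolated linearly between bracketing concentrations, or set to the highest concentration if not reached. The concentration for 50% growth inhibition is given as GI50. TGI: total growth inhibition.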

As to `CCOc1ccc(N=Cc2ccnc3ccccc23)cc1`, the TGI with CCRF-CEM leukemia was 36.5 µM; in the assay with HOP-92 NSCLC, greater than 100 µM; with RPMI-8226 leukemia, 35.1 µM; in the assay with SF-268 CNS, greater than 84.2 µM; in the assay with SF-539 CNS, 85.9 µM; in the assay with SK-MEL-28 melanoma it was greater than 100 µM. For the same compound, the TGI in the assay on SK-MEL-5 melanoma was greater than 82.6 µM; in the assay with SW-620 colon it was greater than 100 µM; in the assay with UACC-257 melanoma it was greater than 100 µM; with UO-31 renal, greater than 100 µM.

For `CC(C)=C1CCC(CN2CCOCC2)C1=O` (stereo not drawn), the TGI was determined as 7.9 µM with CCRF-CEM leukemia; 8.81 µM with HOP-92 NSCLC; 12.5 µM in the assay with RPMI-8226 leukemia; 45 µM in the assay on SF-268 CNS; 31.9 µM with SF-539 CNS; 29.1 µM with SK-MEL-28 melanoma. The TGI worked out at 30.7 µM in the assay with SK-MEL-5 melanoma, 4.26 µM with SW-620 colon, 32.5 µM in the assay with UACC-257 melanoma and 32.6 µM in the assay with UO-31 renal.

`O=C(Oc1ccccc1)C(Br)C(Br)c1ccccc1` (stereo not drawn): the GI50 was 1.39 µM with CCRF-CEM leukemia; 2.73 µM in the assay on HOP-92 NSCLC; 2.75 µM in the assay on RPMI-8226 leukemia; 4.15 µM in the assay on SF-268 CNS; 4.76 µM in the assay with SF-539 CNS; 2.64 µM with SK-MEL-28 melanoma. Moreover, the GI50 in the assay with SK-MEL-5 melanoma is 13.1 µM; in the assay on SW-620 colon, 1.74 µM; in the assay on UACC-257 melanoma, 2.06 µM; in the assay on UO-31 renal, 1.72 µM. For the same compound, the TGI in the assay on CCRF-CEM leukemia came out at 6.68 µM; in the assay with HOP-92 NSCLC, 7.52 µM; in the assay with RPMI-8226 leukemia, 7.9 µM; in the assay with SF-268 CNS it was 15.2 µM; with SF-539 CNS it was 16.4 µM; in the assay with SK-MEL-28 melanoma, 7.11 µM. Also, the TGI with SK-MEL-5 melanoma worked out at 25.8 µM; with SW-620 colon it was 3.29 µM; with UACC-257 melanoma, 4.8 µM; in the assay on UO-31 renal, 3.34 µM.

As to `O=C(CN(/C=C/C(=O)C(F)(F)F)c1ccccc1)c1ccc(Cl)cc1`, the GI50 with CCRF-CEM leukemia is 21 µM; in the assay on HOP-92 NSCLC it was 19.1 µM; in the assay on RPMI-8226 leukemia, 9.66 µM; in the assay with SF-268 CNS, 18.9 µM; in the assay on SF-539 CNS, 22.7 µM; in the assay with SK-MEL-28 melanoma, 20.7 µM. Moreover, the GI50 was 16.4 µM in the assay on SK-MEL-5 melanoma, 22.1 µM in the assay with SW-620 colon, 19.9 µM in the assay on UACC-257 melanoma and 19.9 µM in the assay with UO-31 renal. Further, the TGI in the assay with CCRF-CEM leukemia turned out to be 49.9 µM; in the assay on HOP-92 NSCLC it was 42.1 µM; in the assay with RPMI-8226 leukemia, 43.1 µM; in the assay on SF-268 CNS, 38.8 µM; in the assay with SF-539 CNS, 47 µM; in the assay on SK-MEL-28 melanoma it was 44.6 µM. Also, the TGI in the assay on SK-MEL-5 melanoma was 31.6 µM; in the assay on SW-620 colon it was 45.8 µM; in the assay on UACC-257 melanoma, 45.9 µM; in the assay on UO-31 renal it was 41.7 µM.

`COc1cccc2nc3c(C(=O)NCCN(C)C)cccc3nc12`: the TGI was 25.7 µM with CCRF-CEM leukemia; 28.8 µM with HOP-92 NSCLC; greater than 63.8 µM in the assay with RPMI-8226 leukemia; 1.84 µM in the assay with SF-268 CNS; 17.1 µM with SF-539 CNS; 28.8 µM in the assay on SK-MEL-28 melanoma. Moreover, the TGI is 36.8 µM in the assay with SK-MEL-5 melanoma, greater than 57.7 µM in the assay on SW-620 colon, 27.1 µM in the assay on UACC-257 melanoma and 66.8 µM in the assay with UO-31 renal.

Take `COc1cc2c(c(OC)c1OC)-c1ccc(SC)c(=O)cc1C(CC(=O)Oc1cccc(F)c1)C2` (stereo not drawn): the TGI in the assay with CCRF-CEM leukemia was greater than 31.9 µM; with HOP-92 NSCLC, greater than 81.3 µM; with RPMI-8226 leukemia, 6.19 µM; with SF-268 CNS, greater than 72.5 µM; in the assay on SF-539 CNS, 0.387 µM; in the assay with SK-MEL-28 melanoma, greater than 100 µM. Besides, the TGI was greater than 55.8 µM in the assay with SK-MEL-5 melanoma, greater than 100 µM in the assay on SW-620 colon, greater than 100 µM with UACC-257 melanoma and greater than 100 µM in the assay on UO-31 renal.

Turning to `COC(=O)N/N=C(\C)C(CN(C)C)C(c1ccccc1)c1c(O)c2ccccc2oc1=O` (stereo not drawn), the TGI with CCRF-CEM leukemia, in the assay with HOP-92 NSCLC, with RPMI-8226 leukemia, in the assay on SF-268 CNS, in the assay with SF-539 CNS and in the assay with SK-MEL-28 melanoma was greater than 100 µM in each case. The TGI in the assay with SK-MEL-5 melanoma, in the assay on SW-620 colon, with UACC-257 melanoma and with UO-31 renal was greater than 100 µM throughout.

Take `C/C(=N\NC(N)=S)c1sc(-n2nc(-c3ccccc3)cc2-c2ccccc2)nc1C`: the TGI in the assay with CCRF-CEM leukemia was greater than 100 µM; in the assay with HOP-92 NSCLC it was greater than 100 µM; in the assay with RPMI-8226 leukemia it was 61.2 µM; with SF-268 CNS, greater than 100 µM; with SF-539 CNS it was greater than 100 µM; in the assay with SK-MEL-28 melanoma, greater than 100 µM. Further, the TGI in the assay with SK-MEL-5 melanoma, in the assay with SW-620 colon, in the assay on UACC-257 melanoma and in the assay with UO-31 renal was greater than 100 µM throughout.

For the compound `CN(C)CCCCCNc1c2ccccc2nc2cccc([N+](=O)[O-])c12`, the TGI with CCRF-CEM leukemia was > 0.1 µM and 0.0102 µM; in the assay on HOP-92 NSCLC, 0.00895 µM; with RPMI-8226 leukemia, > 0.1 µM and 0.0188 µM; with SF-268 CNS, 0.0125 µM and 0.018 µM; in the assay with SF-539 CNS it was 0.00979 µM and 0.0157 µM; in the assay with SK-MEL-28 melanoma, 0.0113 µM. Besides, the TGI is 0.00335 µM in the assay with SK-MEL-5 melanoma, 0.0126 µM with SW-620 colon, greater than 0.0231 µM in the assay on UACC-257 melanoma and 0.0425 µM with UO-31 renal. For the same compound, the GI50 was 0.00693 µM in the assay with SK-MEL-5 melanoma, 0.00632 µM with SW-620 colon and 0.0125 µM in the assay with UO-31 renal.

Regarding `CCC(C)(O)c1cn(-c2ccc(S(=O)(=O)O)cc2)nn1` (stereo not drawn), the TGI in the assay with CCRF-CEM leukemia, in the assay with HOP-92 NSCLC, in the assay on RPMI-8226 leukemia, in the assay on SF-268 CNS, with SF-539 CNS and in the assay on SK-MEL-28 melanoma was greater than 100 µM in each case. Also, the TGI with SK-MEL-5 melanoma, in the assay with SW-620 colon, in the assay on UACC-257 melanoma and in the assay with UO-31 renal was greater than 100 µM throughout.

Consider `CN1CCN(CCCOc2cccc3nc(Nc4ccc(F)c(F)c4)ccc23)CC1`, for which the GI50 in the assay with CCRF-CEM leukemia is 2.42 µM; with HOP-92 NSCLC, 1.43 µM; in the assay on RPMI-8226 leukemia it was 5.2 µM; in the assay on SF-268 CNS, 4.46 µM; with SF-539 CNS, 4.03 µM; in the assay with SK-MEL-28 melanoma, 1.08 µM. In addition, the GI50 in the assay on SK-MEL-5 melanoma is 4.44 µM; in the assay on SW-620 colon it was 1.82 µM; in the assay with UACC-257 melanoma it was 0.655 µM; with UO-31 renal, 4.34 µM. Moreover, the TGI in the assay with CCRF-CEM leukemia stood at 8.06 µM; in the assay on HOP-92 NSCLC, 5.74 µM; in the assay with RPMI-8226 leukemia, 12.3 µM; in the assay with SF-268 CNS it was 9.74 µM; with SF-539 CNS, 8.56 µM; with SK-MEL-28 melanoma, 3.63 µM. Besides, the TGI amounted to 8.69 µM with SK-MEL-5 melanoma, 10.5 µM with SW-620 colon, 1.39 µM with UACC-257 melanoma and 9.01 µM with UO-31 renal.
